Measured values taken from US20060121480A1, “Synergistic compositions for the prevention and treatment of acquired immunodeficiency syndrome” (priority 2002, published 2006).
Read-outs that look alike come from different tables or passages of the source.

Tests used:
HIV-1 301714 (adult) [1] = assay: HIV-1 P24 antigen in PBMC coculture, drug exposure at infection and for 12 hours thereafter; assay type: cell-based
Description: (§1) Viruses: 6 viruses were titrated. The TCID50/ml of each virus isolate was as the follows:
(§2) 512.2 μl of HIV-1 302076 was added into 9487.8 μl R-3 medium. 512.2 μl of HIV-1 302077 was added into 9487.8 μl R-3 medium. 126.3 μl of HIV-1 302143 was added into 9873.7 μl R-3 medium. 1002.4 μl of HIV-1 301714 was added into 8997.6 R-3 medium. 2000 μl of HIV-1m 2054 was added into 8000.0 μl R-3 medium. 4000 μl of HTLV-IIIB was added into 6000 R-3 μl medium. Viruses were diluted to 100 TCID50 virus stock: 2.5 ml of 2000 TCID50/ml was added to 2.5 ml of R-3 medium, this is 100 TCID50 (in 100 μl) stock. PBMC: Peripheral blood mononuclear cells (PBMC) were separated from HI-1-uninfected donor by Ficoll-hypaque density gradient centrifugation. PBMC were grown in RPMI 1640 supplemented with 20% fetal calf serum, 5% IL-2 and 5 μg/ml PHA (R-3 medium).
(§3) The above step was repeated for 1:156.25, 781.25, 3906.25 and 19531.25 dilutions. Finally, the concentrations used in the experiment were 2, 0.4, 0.08, 0.016, 0.0032, 0.00064 μg/ml.
(§4) The above step was repeated for 1:625, 1:3125, 1:15625, 1:78125 and 390625 dilution. Finally, the concentrations used in the experiment were 1.
(§5) The final 3 tubes are added with 100 μPBS. […] The tubes were incubated at 37° C. overnight.
(§6) The cells were washed 3 times in PBS.

HIV-1 2054 (adult) [2] = assay: as above; assay type: cell-based
Description: as §1, §2, §3, §4, §5, §6

HIV-1 302076 (pediatric) [3] = conditions: PBMC
Description: (§7) Viruses: 6 viruses were titrated.
as §2
(§8) The final three tubes are added to 100 μl PBS. […] The final 3 tubes are added with 100 μPBS. […] The final 3 tubes are added to 100 μl PBS. 100 μl of 100 TCID50 virus stock were aliquoted into all 63 tubes. 2×10^6 PBMC was added in 1.8 ml of R-3 medium (total 2.0 ml per tube). The tubes were incubated at 37° C. overnight.
(§9) The cells were washed 3 times in PBS. […] HIV-1 P24 antigen measurement was performed in the supernatant of each coculture well on days 4 and 7.0.5 ml cells (10^6/ml) in R-3 medium were added on day 4.

HTLV-IIIB (lab) [4] = conditions: PBMC
Description: as §7, §2, §8, §9

HIV-1 302143 (pediatric) [5] = conditions: PBMC
Description: as §7, §2, §8, §9

HIV-1 302077 (pediatric) [6] = conditions: PBMC
Description: as §7, §2, §8, §9

HIV-1 301714 (adult) [7] = assay: HIV-1 P24 antigen in PBMC coculture, continuous drug exposure; assay type: cell-based
Description: as §1, §2, §5, §6

HIV-1 2054 (adult) [8] = assay: as above; assay type: cell-based
Description: as §1, §2, §5, §6

HIV-1 302076 (pediatric) [9] = conditions: PBMC; remark: listed apart in the source
Description: as §7, §2, §3
(§10) The above step was repeated for 1:625, 1:3125, 1:15625, 1:78125 and 390625 dilution. Finally, the concentrations used in the experiment were 1. 0.2.0.04, 0.008, 0.0016, 0.00032 μg/ml.
as §8, §9

HTLV-IIIB (lab) [10] = conditions: PBMC; remark: listed apart in the source
Description: as §7, §2, §3, §10, §8, §9

HIV-1 302143 (pediatric) [11] = conditions: PBMC; remark: listed apart in the source
Description: as §7, §2, §3, §10, §8, §9

HIV-1 302077 (pediatric) [12] = conditions: PBMC; remark: listed apart in the source
Description: as §7, §2, §3, §10, §8, §9

[13] = HIV-1 301714, day 4, drugs removed after 12 hours
[14] = HIV-1 301714, day 7, drugs removed after 12 hours
[15] = HIV-1 2054, day 4, drugs removed after 12 hours
[16] = HIV-1 2054, day 7, drugs removed after 12 hours
[17] = day 4, continuous drug exposure
[18] = day 7, continuous drug exposure
[19] = HIV-1 301714, day 4, continuous drug exposure
[20] = HIV-1 301714, day 7, continuous drug exposure
[21] = HIV-1 2054, day 4, continuous drug exposure
[22] = HIV-1 2054, day 7, continuous drug exposure

Row | Substance | IC50 (HIV-1 301714 (adult) [1]; [13]) | IC50 (HIV-1 301714 (adult) [1]; [14]) | IC50 (HIV-1 2054 (adult) [2]; [15]) | IC50 (HIV-1 2054 (adult) [2]; [16]) | IC50 (HTLV-IIIB (lab) [4]; [17]) | IC50 (HTLV-IIIB (lab) [4]; [18]) | IC50 (HIV-1 301714 (adult) [7]; [19]) | IC50 (HIV-1 301714 (adult) [7]; [20]) | IC50 (HIV-1 2054 (adult) [8]; [21]) | IC50 (HIV-1 2054 (adult) [8]; [22]) | other results
1 | 5A8: humanized monoclonal antibody to CD4 | 0.70 µg/mL | 1.82 µg/mL | 0.070 µg/mL | 0.13 µg/mL | 0.19 µg/mL | 0.16 µg/mL | 0.14 µg/mL | 0.30 µg/mL | 0.041 µg/mL | 0.017 µg/mL | IC50 (HIV-1 302076 (pediatric) [3]; HIV-1 302076, day 4, continuous drug exposure): 0.10 µg/mL; IC50 (HIV-1 302076 (pediatric) [3]; HIV-1 302076, day 7, continuous drug exposure): 0.028 µg/mL; IC50 (HIV-1 302143 (pediatric) [5]; HIV-1 302143, day 4, continuous drug exposure): 0.038 µg/mL; IC50 (HIV-1 302143 (pediatric) [5]; HIV-1 302143, day 7, continuous drug exposure): 0.022 µg/mL; IC50 (HIV-1 302077 (pediatric) [6]; HIV-1 302077, day 4, continuous drug exposure): 0.14 µg/mL; IC50 (HIV-1 302077 (pediatric) [6]; HIV-1 302077, day 7, continuous drug exposure): 0.067 µg/mL; IC50 (HIV-1 302076 (pediatric) [9]; HIV-1 302076, day 4, drugs removed after 12 hours): 0.15 µg/mL; IC50 (HIV-1 302076 (pediatric) [9]; HIV-1 302076, day 7, drugs removed after 12 hours): 0.65 µg/mL; IC50 (HTLV-IIIB (lab) [10]; day 4, drugs removed after 12 hours): 0.44 µg/mL; IC50 (HTLV-IIIB (lab) [10]; day 7, drugs removed after 12 hours): 1.30 µg/mL; IC50 (HIV-1 302143 (pediatric) [11]; HIV-1 302143, day 4, drugs removed after 12 hours): 0.97 µg/mL; IC50 (HIV-1 302143 (pediatric) [11]; HIV-1 302143, day 7, drugs removed after 12 hours): >2.0 µg/mL; IC50 (HIV-1 302077 (pediatric) [12]; HIV-1 302077, day 4, drugs removed after 12 hours): 0.17 µg/mL; IC50 (HIV-1 302077 (pediatric) [12]; HIV-1 302077, day 7, drugs removed after 12 hours): 0.50 µg/mL
2 | enfuvirtide | 0.20 µg/mL | 0.050 µg/mL | 0.039 µg/mL | 0.11 µg/mL | 0.017 µg/mL | 0.013 µg/mL | 0.049 µg/mL | 0.040 µg/mL | 0.019 µg/mL | 0.16 µg/mL | 
